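Cells were grown in 96-well plates and exposed to each compound for 48 hours at five concentrations; endpoints were interpolated linearly between bracketing concentrations, or set to the highest concentration if not reached. At the GI50, growth is halved. TGI denotes the concentration required for complete inhibition of growth.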
Tests used:
Experiment in all cases: inhibition of tumour cell growth, NCI panel, 48 h
SN12C renal = test system: SN12C renal
NCI-H460 lung = test system: NCI-H460 lung
786-0 renal = test system: 786-0 renal
MDA-MB-435 = test system: MDA-MB-435
COLO 205 colon = test system: COLO 205 colon
SF-268 CNS = test system: SF-268 CNS
A549 NSCLC = test system: A549 NSCLC
MDA-MB-231 breast = test system: MDA-MB-231 breast
HCT-116 colon = test system: HCT-116 colon
PC-3 prostate = test system: PC-3 prostate
OVCAR-8 ovarian = test system: OVCAR-8 ovarian
BT-549 breast = test system: BT-549 breast
NCI/ADR-RES ovarian = test system: NCI/ADR-RES ovarian
RPMI-8226 leukemia = test system: RPMI-8226 leukemia
SK-MEL-5 melanoma = test system: SK-MEL-5 melanoma
HS 578T breast = test system: HS 578T breast
UACC-257 melanoma = test system: UACC-257 melanoma
MOLT-4 leukemia = test system: MOLT-4 leukemia
SR leukemia = test system: SR leukemia
DU-145 prostate = test system: DU-145 prostate
CAKI-1 renal = test system: CAKI-1 renal
SF-539 CNS = test system: SF-539 CNS
NCI-H522 lung = test system: NCI-H522 lung
HOP-62 NSCLC = test system: HOP-62 NSCLC
A498 renal = test system: A498 renal
SK-OV-3 ovarian = test system: SK-OV-3 ovarian
U251 CNS = test system: U251 CNS
SK-MEL-28 melanoma = test system: SK-MEL-28 melanoma
IGROV1 ovarian = test system: IGROV1 ovarian
SW-620 colon = test system: SW-620 colon
ACHN renal = test system: ACHN renal
LOX IMVI melanoma = test system: LOX IMVI melanoma
SNB-19 CNS = test system: SNB-19 CNS
SF-295 CNS = test system: SF-295 CNS
OVCAR-3 ovarian = test system: OVCAR-3 ovarian
HCC-2998 colon = test system: HCC-2998 colon
SNB-75 CNS = test system: SNB-75 CNS
MALME-3M melanoma = test system: MALME-3M melanoma
UO-31 renal = test system: UO-31 renal
EKVX NSCLC = test system: EKVX NSCLC
M14 melanoma = test system: M14 melanoma
HOP-92 NSCLC = test system: HOP-92 NSCLC
RXF 393 renal = test system: RXF 393 renal
K-562 leukemia = test system: K-562 leukemia
NCI-H23 lung = test system: NCI-H23 lung
HT29 colon = test system: HT29 colon
OVCAR-4 ovarian = test system: OVCAR-4 ovarian
HCT-15 colon = test system: HCT-15 colon
CCRF-CEM leukemia = test system: CCRF-CEM leukemia
MCF7 breast = test system: MCF7 breast
TK-10 renal = test system: TK-10 renal
UACC-62 melanoma = test system: UACC-62 melanoma
OVCAR-5 ovarian = test system: OVCAR-5 ovarian
SK-MEL-2 melanoma = test system: SK-MEL-2 melanoma
T-47D breast = test system: T-47D breast
NCI-H226 lung = test system: NCI-H226 lung
HL-60(TB) leukemia = test system: HL-60(TB) leukemia
KM12 colon = test system: KM12 colon

COc1nc(Cl)nc(Cl)c1Cl (tested in a mixture with another compound)
TGI (SN12C renal): 51.6 µM | TGI (NCI-H460 lung): 12.1 µM | TGI (786-0 renal): > 46.7 µM | TGI (MDA-MB-435): > 36.3 µM | TGI (COLO 205 colon): 26.8 µM | TGI (SF-268 CNS): > 31.7 µM | TGI (A549 NSCLC): > 66 µM | TGI (MDA-MB-231 breast): > 39.1 µM | TGI (HCT-116 colon): 19.5 µM | TGI (PC-3 prostate): 26 µM | TGI (OVCAR-8 ovarian): > 30.8 µM | TGI (BT-549 breast): 22.5 µM | TGI (NCI/ADR-RES ovarian): > 27.7 µM | TGI (RPMI-8226 leukemia): 5.61 µM | TGI (SK-MEL-5 melanoma): 31.5 µM | TGI (HS 578T breast): > 100 µM | TGI (UACC-257 melanoma): 12 µM | TGI (MOLT-4 leukemia): 10.1 µM | TGI (SR leukemia): 4.65 µM | TGI (DU-145 prostate): 15.5 µM | TGI (CAKI-1 renal): 0.194 µM | TGI (SF-539 CNS): 21.6 µM | TGI (NCI-H522 lung): 1.55 µM | TGI (HOP-62 NSCLC): 10.3 µM | TGI (A498 renal): 37.4 µM | TGI (SK-OV-3 ovarian): 32.7 µM | TGI (U251 CNS): 23 µM | TGI (SK-MEL-28 melanoma): 62.9 µM | TGI (IGROV1 ovarian): 26.2 µM | TGI (SW-620 colon): 20.8 µM | TGI (ACHN renal): 17.6 µM | TGI (LOX IMVI melanoma): 12.8 µM | TGI (SNB-19 CNS): 18.5 µM | TGI (SF-295 CNS): 36.3 µM | TGI (OVCAR-3 ovarian): 12.4 µM | TGI (HCC-2998 colon): 0.672 µM | TGI (SNB-75 CNS): > 61.4 µM | TGI (MALME-3M melanoma): 47.3 µM | TGI (UO-31 renal): 1.94 µM | TGI (EKVX NSCLC): 1.4 µM | TGI (M14 melanoma): 27.6 µM | TGI (HOP-92 NSCLC): 14.9 µM | TGI (RXF 393 renal): 31.7 µM | TGI (K-562 leukemia): 23.8 µM | TGI (NCI-H23 lung): 20.8 µM | TGI (HT29 colon): 17.9 µM | TGI (OVCAR-4 ovarian): 14.1 µM | TGI (HCT-15 colon): 18.7 µM | TGI (CCRF-CEM leukemia): 12.1 µM | TGI (MCF7 breast): 24.2 µM | TGI (TK-10 renal): 19 µM | TGI (UACC-62 melanoma): 28.6 µM | TGI (OVCAR-5 ovarian): 49.9 µM | TGI (SK-MEL-2 melanoma): 22.6 µM | TGI (T-47D breast): 44.4 µM | TGI (NCI-H226 lung): 77 µM

COc1ccc2c(c1)[n+]([O-])c(C#N)c(NC(=O)c1cccs1)[n+]2[O-]
GI50 (SN12C renal): > 100 µM | TGI (SN12C renal): > 100 µM | GI50 (NCI-H460 lung): > 100 µM | TGI (NCI-H460 lung): > 100 µM | GI50 (786-0 renal): > 100 µM | TGI (786-0 renal): > 100 µM | GI50 (MDA-MB-435): > 100 µM | TGI (MDA-MB-435): > 100 µM | GI50 (HL-60(TB) leukemia): > 100 µM | TGI (HL-60(TB) leukemia): > 100 µM | GI50 (COLO 205 colon): > 100 µM | TGI (COLO 205 colon): > 100 µM | GI50 (SF-268 CNS): > 100 µM | TGI (SF-268 CNS): > 100 µM | GI50 (A549 NSCLC): > 100 µM | TGI (A549 NSCLC): > 100 µM | GI50 (MDA-MB-231 breast): > 100 µM | TGI (MDA-MB-231 breast): > 100 µM | GI50 (HCT-116 colon): > 100 µM | TGI (HCT-116 colon): > 100 µM | GI50 (PC-3 prostate): > 100 µM | TGI (PC-3 prostate): > 100 µM | GI50 (OVCAR-8 ovarian): > 100 µM | TGI (OVCAR-8 ovarian): > 100 µM | GI50 (BT-549 breast): > 100 µM | TGI (BT-549 breast): > 100 µM | GI50 (NCI/ADR-RES ovarian): > 100 µM | TGI (NCI/ADR-RES ovarian): > 100 µM | GI50 (RPMI-8226 leukemia): > 100 µM | TGI (RPMI-8226 leukemia): > 100 µM | GI50 (SK-MEL-5 melanoma): > 100 µM | TGI (SK-MEL-5 melanoma): > 100 µM | GI50 (HS 578T breast): > 100 µM | TGI (HS 578T breast): > 100 µM | GI50 (UACC-257 melanoma): > 100 µM | TGI (UACC-257 melanoma): > 100 µM | GI50 (MOLT-4 leukemia): > 100 µM | TGI (MOLT-4 leukemia): > 100 µM | GI50 (SR leukemia): > 100 µM | TGI (SR leukemia): > 100 µM | GI50 (DU-145 prostate): > 100 µM | TGI (DU-145 prostate): > 100 µM | GI50 (CAKI-1 renal): > 100 µM | TGI (CAKI-1 renal): > 100 µM | GI50 (KM12 colon): > 100 µM | TGI (KM12 colon): > 100 µM | GI50 (SF-539 CNS): > 100 µM | TGI (SF-539 CNS): > 100 µM | GI50 (NCI-H522 lung): > 100 µM | TGI (NCI-H522 lung): > 100 µM | GI50 (HOP-62 NSCLC): > 100 µM | TGI (HOP-62 NSCLC): > 100 µM | GI50 (A498 renal): > 100 µM | TGI (A498 renal): > 100 µM | GI50 (SK-OV-3 ovarian): > 100 µM | TGI (SK-OV-3 ovarian): > 100 µM | GI50 (U251 CNS): > 100 µM | TGI (U251 CNS): > 100 µM | GI50 (SK-MEL-28 melanoma): > 100 µM | TGI (SK-MEL-28 melanoma): > 100 µM | GI50 (SW-620 colon): > 100 µM | TGI (SW-620 colon): > 100 µM | GI50 (ACHN renal): > 100 µM | TGI (ACHN renal): > 100 µM | GI50 (LOX IMVI melanoma): > 100 µM | TGI (LOX IMVI melanoma): > 100 µM | GI50 (SNB-19 CNS): > 100 µM | TGI (SNB-19 CNS): > 100 µM | GI50 (SF-295 CNS): > 100 µM | TGI (SF-295 CNS): > 100 µM | GI50 (OVCAR-3 ovarian): > 100 µM | TGI (OVCAR-3 ovarian): > 100 µM | GI50 (HCC-2998 colon): > 100 µM | TGI (HCC-2998 colon): > 100 µM | GI50 (SNB-75 CNS): > 100 µM | TGI (SNB-75 CNS): > 100 µM | GI50 (MALME-3M melanoma): > 100 µM | TGI (MALME-3M melanoma): > 100 µM | GI50 (UO-31 renal): > 100 µM | TGI (UO-31 renal): > 100 µM | GI50 (EKVX NSCLC): > 100 µM | TGI (EKVX NSCLC): > 100 µM | GI50 (M14 melanoma): > 100 µM | TGI (M14 melanoma): > 100 µM | GI50 (HOP-92 NSCLC): > 100 µM | TGI (HOP-92 NSCLC): > 100 µM | GI50 (RXF 393 renal): > 100 µM | TGI (RXF 393 renal): > 100 µM | GI50 (K-562 leukemia): > 100 µM | TGI (K-562 leukemia): > 100 µM | GI50 (NCI-H23 lung): > 100 µM | TGI (NCI-H23 lung): > 100 µM | GI50 (HT29 colon): > 100 µM | TGI (HT29 colon): > 100 µM | GI50 (OVCAR-4 ovarian): > 100 µM | TGI (OVCAR-4 ovarian): > 100 µM | GI50 (HCT-15 colon): > 100 µM | TGI (HCT-15 colon): > 100 µM | GI50 (CCRF-CEM leukemia): > 100 µM | TGI (CCRF-CEM leukemia): > 100 µM | GI50 (MCF7 breast): > 100 µM | TGI (MCF7 breast): > 100 µM | GI50 (TK-10 renal): > 100 µM | TGI (TK-10 renal): > 100 µM | GI50 (UACC-62 melanoma): > 100 µM | TGI (UACC-62 melanoma): > 100 µM | GI50 (OVCAR-5 ovarian): > 100 µM | TGI (OVCAR-5 ovarian): > 100 µM | GI50 (T-47D breast): > 100 µM | TGI (T-47D breast): > 100 µM | GI50 (NCI-H226 lung): > 100 µM | TGI (NCI-H226 lung): > 100 µM

Source: PubChem BioAssay (NCI)
